Values of other authors, collected in PubChem BioAssay AID1259409 (Chemical Carcinogenesis Research Information System (CCRIS), 2018).

System: rodent chemically induced tumor inhibition, incidence and multiplicity
Experiment: CCRIS tumor inhibitor studies
Details: Route [Inhibitor]: ORAL

O=C1O[C@H]([C@@H](O)CO)C(O)=C1O
tumour outcome (control, treated, inhibition, significance) (Carcinogen: 1,2-DIMETHYLHYDRAZINE, 540-73-8, Dose [Inhibitor]: 0.3% IN DRINKING WATER BEGINNING POST LAST CARCINOGEN DOSE AND CONTINUING FOR DURATION OF STUDY (STUDY DURATION: 55 WK), Species: MOUSE, Strain/Sex: CBA/FEMALE, Target Tissue: Type of Lesion: UTERUS (ENDOMETRIUM): STROMAL SARCOMA, Dose [Carcinogen]: 8 MG/KG BW IN WATER 1/WK FOR 8 WK, Promoter: ESTRADIOL PROPIONATE, 113-38-2): 13/40 (33%), 3/40 (8%), 77%, not calculated | tumour outcome (control, treated, inhibition, significance) (Carcinogen: 1,2-DIMETHYLHYDRAZINE, 540-73-8, Dose [Inhibitor]: 1% IN 20% FAT DIET DAILY STARTING 2 WK BEFORE CARCINOGEN TREATMENT AND CONTINUING FOR DURATION OF STUDY (STUDY DURATION:, Species: RAT, Strain/Sex: F344/FEMALE, Target Tissue: Type of Lesion: COLON: ADENOMA, ADENOCARCINOMA, Dose [Carcinogen]: 150 MG/KG BW IN 0.9% SALINE ADJUSTED TO PH 6.8 ONCE, Promoter: NONE USED): 26%, 0%, 100%, p<0.05 | tumour outcome (control, treated, inhibition, significance) (Carcinogen: 1,2-DIMETHYLHYDRAZINE, 540-73-8, Dose [Inhibitor]: 1% IN 20% FAT DIET DAILY STARTING 2 WK BEFORE CARCINOGEN TREATMENT AND CONTINUING FOR DURATION OF STUDY (STUDY DURATION:, Species: RAT, Strain/Sex: F344/FEMALE, Target Tissue: Type of Lesion: KIDNEY: NEPHROBLASTOMA, ADENOCARCINOMA, Dose [Carcinogen]: 150 MG/KG BW IN 0.9% SALINE ADJUSTED TO PH 6.8 ONCE, Promoter: NONE USED): 22%, 0%, 100%, p<0.05 | tumour outcome (control, treated, inhibition, significance) (Carcinogen: 1,2-DIMETHYLHYDRAZINE, 540-73-8, Dose [Inhibitor]: 1% IN 20% FAT DIET DAILY STARTING 2 WK BEFORE START OF CARCINOGEN TREATMENT AND CONTINUING FOR DURATION OF STUDY (STUDY, Species: RAT, Strain/Sex: F344/FEMALE, Target Tissue: Type of Lesion: COLON: ADENOCARCINOMA, Dose [Carcinogen]: 20 MG/KG BW IN 0.9% SALINE 1/WK FOR 10 WK, Promoter: NONE USED): 33%, 39%, -18%, not significant | tumour outcome (control, treated, inhibition, significance) (Carcinogen: 1,2-DIMETHYLHYDRAZINE, 540-73-8, Dose [Inhibitor]: 1% IN 20% FAT DIET DAILY STARTING 2 WK BEFORE START OF CARCINOGEN TREATMENT AND CONTINUING FOR DURATION OF STUDY (STUDY, Species: RAT, Strain/Sex: F344/FEMALE, Target Tissue: Type of Lesion: COLON: ADENOMA, Dose [Carcinogen]: 20 MG/KG BW IN 0.9% SALINE 1/WK FOR 10 WK, Promoter: NONE USED): 42%, 39%, 7%, not significant | tumour outcome (control, treated, inhibition, significance) (Carcinogen: 1,2-DIMETHYLHYDRAZINE, 540-73-8, Dose [Inhibitor]: 1% IN 20% FAT DIET DAILY STARTING 2 WK BEFORE START OF CARCINOGEN TREATMENT AND CONTINUING FOR DURATION OF STUDY (STUDY, Species: RAT, Strain/Sex: F344/FEMALE, Target Tissue: Type of Lesion: DUODENUM: ADENOCARCINOMA, ADENOMA, Dose [Carcinogen]: 20 MG/KG BW IN 0.9% SALINE 1/WK FOR 10 WK, Promoter: NONE USED): 25%, 26%, -4%, not significant | tumour outcome (control, treated, inhibition, significance) (Carcinogen: 1,2-DIMETHYLHYDRAZINE, 540-73-8, Dose [Inhibitor]: 1% IN 20% FAT DIET DAILY STARTING 2 WK BEFORE START OF CARCINOGEN TREATMENT AND CONTINUING FOR DURATION OF STUDY (STUDY, Species: RAT, Strain/Sex: F344/FEMALE, Target Tissue: Type of Lesion: EAR DUCT: SQUAMOUS CELL CARCINOMA, Dose [Carcinogen]: 20 MG/KG BW IN 0.9% SALINE 1/WK FOR 10 WK, Promoter: NONE USED): 13%, 13%, 0%, not significant | tumour outcome (control, treated, inhibition, significance) (Carcinogen: 1,2-DIMETHYLHYDRAZINE, 540-73-8, Dose [Inhibitor]: 1% IN 20% FAT DIET DAILY STARTING 2 WK BEFORE START OF CARCINOGEN TREATMENT AND CONTINUING FOR DURATION OF STUDY (STUDY, Species: RAT, Strain/Sex: F344/FEMALE, Target Tissue: Type of Lesion: KIDNEY: NEPHROBLASTOMA, ADENOCARCINOMA, Dose [Carcinogen]: 20 MG/KG BW IN 0.9% SALINE 1/WK FOR 10 WK, Promoter: NONE USED): 13%, 18%, -38%, not significant | tumour outcome (control, treated, inhibition, significance) (Carcinogen: 1,2-DIMETHYLHYDRAZINE, 540-73-8, Dose [Inhibitor]: 1.2% IN DIET DAILY STARTING 2 WK PRIOR TO CARCINOGEN TREATMENT AND CONTINUING FOR DURATION OF STUDY (STUDY DURATION: 28, Species: RAT, Strain/Sex: SPRAGUE-DAWLEY/MALE, Target Tissue: Type of Lesion: COLON: ADENOCARCINOMA, Dose [Carcinogen]: 20 MG/KG BW IN BACTERIOSTATIC SALINE 1/WK FOR 20 WK, Promoter: NONE USED): 64%, 38%, 41%, not calculated | tumour outcome (control, treated, inhibition, significance) (Carcinogen: 3-METHYLCHOLANTHRENE, 56-49-5, Dose [Inhibitor]: 0, 1.25% IN DRINKING WATER FOR DURATION OF STUDY BEGINNING 15 D PRIOR TO CARCINOGEN TREATMENT (STUDY DURATION: 150 D), Species: MOUSE, Strain/Sex: LACA/MALE, Target Tissue: Type of Lesion: GLANDULAR STOMACH: TUMOR, Dose [Carcinogen]: 2.2 MG (AVERAGE DOSE) ON COTTON THREADS IMPLANTED IN GLANDULAR STOMACH, Promoter: NONE USED): 66%, 28%, 58%, p<0.02 | tumour outcome (control, treated, inhibition, significance) (Carcinogen: 3-METHYLCHOLANTHRENE, 56-49-5, Dose [Inhibitor]: 0, 2 MG/ML IN DRINKING WATER FOR 6 WK BEGINNING ON FIRST DAY OF CARCINOGEN TREATMENT (STUDY DURATION: 16 WK), Species: MOUSE, Strain/Sex: SWISS/FEMALE, Target Tissue: Type of Lesion: CERVIX: SQUAMOUS CELL CARCINOMA, Dose [Carcinogen]: 600 UG IN BEESWAX IMPREGNATED COTTON THREAD FOR DURATION OF STUDY, Promoter: NONE USED): 16/21 (76%), 5/15 (33%), 57%, p<0.02 | tumour outcome (control, treated, inhibition, significance) (Carcinogen: 3-METHYLCHOLANTHRENE, 56-49-5, Dose [Inhibitor]: 0, 2 MG/ML IN DRINKING WATER FOR 10 WK BEGINNING 6 WK AFTER FIRST DAY OF CARCINOGEN TREATMENT (STUDY DURATION: 16 WK), Species: MOUSE, Strain/Sex: SWISS/FEMALE, Target Tissue: Type of Lesion: CERVIX: SQUAMOUS CELL CARCINOMA, Dose [Carcinogen]: 600 UG IN BEESWAX IMPREGNATED COTTON THREAD FOR DURATION OF STUDY, Promoter: NONE USED): 16/21 (76%), 8/12 (67%), 12%, not significant | tumour outcome (control, treated, inhibition, significance) (Carcinogen: 3-METHYLCHOLANTHRENE, 56-49-5, Dose [Inhibitor]: 0, 2 MG/ML IN DRINKING WATER FOR 16 WK (STUDY DURATION: 16 WK), Species: MOUSE, Strain/Sex: SWISS/FEMALE, Target Tissue: Type of Lesion: CERVIX: SQUAMOUS CELL CARCINOMA, Dose [Carcinogen]: 600 UG IN BEESWAX IMPREGNATED COTTON THREAD FOR DURATION OF STUDY, Promoter: NONE USED): 16/21 (76%), 5/15 (33%), 57%, p<0.02 | tumour outcome (control, treated, inhibition, significance) (Carcinogen: 7,12-DIMETHYLBENZ[A]ANTHRACENE, 57-97-6, Dose [Inhibitor]: 0, 30 MG/ML IN DRINKING WATER FROM 40-90 D OF AGE THEN 0, 20 MG/ML FROM 90-180 D OF AGE AND 0, 10 MG/ML FROM 180-240 D O, Dose [Inhibitor]: 0, 30 MG/ML IN DRINKING WATER FROM 40-90 D OF AGE THEN 0, 20 MG/ML FROM 90-180 D OF AGE AND 0, 10 MG/ML FROM 180-240 D O, Species: RAT, Strain/Sex: SPRAGUE-DAWLEY/FEMALE, Target Tissue: Type of Lesion: MAMMARY GLAND: ADENOCARCINOMA, FIBROADENOMA, Dose [Carcinogen]: 5 MG IN 0.2 ML SESAME OIL 1/2 D FOR 12 D BEGINNING AT 50 D OF AGE, Promoter: NONE USED): 100%, 57%, 43%, p<0.001
